Results taken from patent publication US20250170114A1, “METHODS OF TREATMENT USING T-TYPE CALCIUM CHANNEL MODULATORS” (Praxis Precision Medicines, Inc., priority 2022, published 2025).

System: participants with ET
Assay: Phase 2 trial: treatment-emergent adverse events (TEAEs)
Type: in vivo
From the text: Part A of the clinical trial was open-label and assessed the safety and tolerability of the study drug, as well as the overall magnitude and pattern of change in ET severity.
Part B of the clinical trial consisted of both an open-label titration phase and a randomized, double-blind, placebo-controlled withdrawal phase. Part B assessed the safety and tolerability of the study drug, as well as the overall magnitude and pattern of change in ET severity and the duration of that effect. […] In the randomized, double-blind, placebo-controlled withdrawal phase, participants were either maintained on their final open-label dose or switched to placebo for an additional 14 days (Days 43 to 56).
Key safety measures included clinical laboratory evaluations, 12-lead ECG, C-SSRS, and vital signs. Key efficacy assessments included the TETRAS Performance subscale, TETRAS Upper Limb using accelerometry, CGI, and PGI-C. Blood samples were obtained for the determination of study drug plasma concentrations using a validated bioanalytical method and may also be used for method development and/or metabolite characterization.
On Day 1, participants received a 20 mg dose of study drug on an empty stomach (at least 1 hour before breakfast). Participants remained in a clinical setting under medical observation for approximately 6 hours. TETRAS Performance assessments were performed before dosing and 6 hours (±2) post-dose. For dosing on Day 2 through Day 41, participants were instructed to dose QAM at least 1 hour before breakfast at home. Participants continued taking study drug 20 mg QAM at home through Day 3. […] On Day 4, participants escalated to 40 mg QAM through Day 7, when they returned to the clinic for safety assessments and efficacy testing. On Day 8, participants escalated to 60 mg QAM through Day 14. […] On Day 15, participants escalated to 80 mg QAM through Day 21, when they returned to the clinic for safety assessments and efficacy testing. On Day 22, participants escalated to 100 mg QAM through Day 28. […] On Day 29, participants escalated to 120 mg QAM through Day 42, when they returned to the clinic for safety assessments and efficacy testing. The dose on Day 42 was taken in the clinic. On Day 35, participants received a telephone call from site staff to inquire about AEs and concomitant medications. On Day 41, participants completed a TETRAS Performance Upper Limb assessment via a telehealth visit. […] Participants could only change to a lower dose level once, and no dose changes were allowed to occur after Day 36.
In both phases, key safety measures included clinical laboratory evaluations, 12-lead ECG, C-SSRS, and vital signs. Key efficacy assessments included the TETRAS Performance subscale, TETRAS Upper Limb using accelerometry, CGI, PGI-C, TETRAS ADL Subscale, QUEST, BDI-II, and BAI. Blood samples were obtained for the determination of study drug and metabolite plasma concentrations.

[1] = Part A, Overall, N = 7, listed as study drug
[2] = Part B - RWD, study drug group, N = 6
[3] = open-label titration phase of Part B
[4] = randomized-withdrawal phase of Part B, participants receiving study drug

CC(C)(C)NC(=O)CN1CCC(CNC(=O)c2cc(F)cc(Cl)c2)CC1.Cl [Study drug]
6 (85.6) n (%): TEAE SOC Nervous System Disorders (Part A, Overall, N = 7)
3 n (%): TEAE PT Headache [1] | SOC Gastrointestinal Disorders (Part B, 20 mg, N = 17) | PT Constipation (Part B, 40 mg, N = 15) | SOC Gastrointestinal Disorders (Part B, 40 mg, N = 15) | SOC General Disorders and Administration Site Conditions (Part B, 60 mg, N = 12) | PT Fatigue (Part B, Overall, N = 17) | PT Insomnia (Part B, Overall, N = 17) | SOC Musculoskeletal and Connective Tissue Disorders (Part B, Overall, N = 17)
57.1%: participants experiencing TEAEs considered related to study drug (Part A)
mild to moderate: severity of treatment emergent adverse events (TEAEs) (Phase 2 trial overall)
7 participants: participants who experienced AEs leading to study drug withdrawal (Part A and open-label titration phase of Part B together)
88.2%: participants who experienced at least 1 TEAE [3]
7 n (%): TEAE Moderate (Part B - OLT, N = 17)
10 n (%): Any TEAE (Part B, 20 mg, N = 17)
3 (33.3) n (%): Any TEAE (Part B, 120 mg, N = 9)
6 n (%): Any TEAE leading to study drug withdrawal (Part B - OLT, N = 17) | PT Constipation (Part B, Overall, N = 17) | PT Dizziness (Part B, Overall, N = 17)
85.7%: participants who experienced at least 1 TEAE (Part A)
a third: discontinuation of participants during the titration period (accelerated titration regimen)
6 (85.7) n (%): Any TEAE (Part A (overall), N = 7) | TEAE Mild (Part A (overall), N = 7) | Any TEAE (Part A, 20 mg, N = 7) | TEAE SOC Nervous System Disorders (Part A, 20 mg, N = 7) | Any TEAE (Part A, Overall, N = 7)
6 participants: Drug-related TEAE dizziness [3]
16.7%: participants who experienced TEAEs (randomized withdrawal phase of Part B, study drug group)
2 (20.0) n (%): SOC Gastrointestinal Disorders (Part B, 80 mg, N = 10) | SOC Nervous System Disorders (Part B, 80 mg, N = 10)
13 n (%): TEAE Mild (Part B - OLT, N = 17)
generally safe and well tolerated: overall safety and tolerability (doses up to 120 mg)
3 participants: Drug-related TEAE dizziness (Part A) | ongoing AE constipation that had emerged during open-label titration [4]
One mild SAE of cyst: serious adverse event (SAE) experienced (open-label titration phase of Part B, considered unrelated to study drug)
1 (10.0) n (%): PT Constipation (Part B, 80 mg, N = 10)
4 n (%): TEAE PT Dizziness [1] | PT Dizziness (Part B, 20 mg, N = 17) | SOC Nervous System Disorders (Part B, 40 mg, N = 15) | PT Cognitive disorder (Part B, Overall, N = 17) | SOC Psychiatric Disorders (Part B, Overall, N = 17)
4 (40.0) n (%): Any TEAE (Part B, 80 mg, N = 10)
2 (28.6) n (%): TEAE SOC Psychiatric Disorders (Part A, 20 mg, N = 7) | TEAE SOC Psychiatric Disorders (Part A, Overall, N = 7)
12 n (%): Any TEAE related to study drug (Part B - OLT, N = 17) | SOC Nervous System Disorders (Part B, Overall, N = 17)
1 (14.3) n (%): Any TEAE leading to study drug withdrawal (Part A (overall), N = 7) | Any TEAE related to disease under study (Part A (overall), N = 7) | TEAE Moderate (Part A (overall), N = 7)
2 participants: Drug-related TEAE paraesthesia [3] | ongoing AE photosensitivity/photophobia that had emerged during open-label titration [4]
1 n (%): Any TEAE leading to study drug withdrawal [1] | Any TEAE related to disease under study (Part B - OLT, N = 17) | Any serious adverse events (Part B - OLT, N = 17) | Any TEAE (Part B - RWD, study drug group, N = 6, listed as study drug) | PT Constipation (Part B, 20 mg, N = 17) | PT Insomnia (Part B, 20 mg, N = 17) | SOC Musculoskeletal and Connective Tissue Disorders (Part B, 20 mg, N = 17) | SOC Psychiatric Disorders (Part B, 20 mg, N = 17) | PT Cognitive disorder (Part B, 40 mg, N = 15) | PT Dizziness (Part B, 40 mg, N = 15) | PT Fatigue (Part B, 40 mg, N = 15) | PT Cognitive disorder (Part B, 60 mg, N = 12) | SOC Psychiatric Disorders (Part B, 60 mg, N = 12)
2 n (%): PT Cognitive disorder (Part B, 20 mg, N = 17) | PT Fatigue (Part B, 20 mg, N = 17) | SOC General Disorders and Administration Site Conditions (Part B, 20 mg, N = 17) | PT Insomnia (Part B, 40 mg, N = 15) | SOC General Disorders and Administration Site Conditions (Part B, 40 mg, N = 15) | SOC Psychiatric Disorders (Part B, 40 mg, N = 15) | PT Dizziness (Part B, 60 mg, N = 12) | PT Fatigue (Part B, 60 mg, N = 12) | SOC Musculoskeletal and Connective Tissue Disorders (Part B, 60 mg, N = 12) | SOC Vascular Disorders (Part B, 60 mg, N = 12) | SOC Vascular Disorders (Part B, Overall, N = 17)
1 (11.1) n (%): Any TEAE (Part B, 100 mg, N = 9) | PT Constipation (Part B, 100 mg, N = 9) | SOC Gastrointestinal Disorders (Part B, 100 mg, N = 9) | PT Constipation (Part B, 120 mg, N = 9) | SOC Gastrointestinal Disorders (Part B, 120 mg, N = 9) | SOC Nervous System Disorders (Part B, 120 mg, N = 9) | SOC Psychiatric Disorders (Part B, 120 mg, N = 9)
4 (57.1) n (%): Any TEAE related to study drug (Part A (overall), N = 7) | TEAE PT Dizziness (Part A, 20 mg, N = 7) | TEAE PT Dizziness (Part A, Overall, N = 7)
3 (42.9) n (%): TEAE PT Headache (Part A, 20 mg, N = 7) | TEAE PT Headache (Part A, Overall, N = 7)
15 n (%): Any TEAE (Part B - OLT, N = 17) | Any TEAE (Part B, Overall, N = 17)
0 n (%): Any TEAE related to study procedure (Part A (overall), N = 7) | Any fatal SAEs (Part A (overall), N = 7) | Any serious adverse events (Part A (overall), N = 7) | TEAE Severe (Part A (overall), N = 7) | TEAE PT Dizziness (Part A, 40 mg, N = 6) | TEAE SOC Psychiatric Disorders (Part A, 40 mg, N = 6) | Any TEAE related to study procedure (Part B - OLT, N = 17) | Any fatal SAEs (Part B - OLT, N = 17) | TEAE Severe (Part B - OLT, N = 17) | Any TEAE leading to study drug withdrawal [2] | Any TEAE related to disease under study [2] | Any TEAE related to study drug [2] | Any TEAE related to study procedure [2] | Any fatal SAEs [2] | Any serious adverse events [2] | TEAE Severe [2] | SOC Vascular Disorders (Part B, 20 mg, N = 17) | SOC Musculoskeletal and Connective Tissue Disorders (Part B, 40 mg, N = 15) | SOC Vascular Disorders (Part B, 40 mg, N = 15) | PT Constipation (Part B, 60 mg, N = 12) | PT Insomnia (Part B, 60 mg, N = 12) | SOC Gastrointestinal Disorders (Part B, 60 mg, N = 12) | PT Cognitive disorder (Part B, 80 mg, N = 10) | PT Dizziness (Part B, 80 mg, N = 10) | PT Fatigue (Part B, 80 mg, N = 10) | PT Insomnia (Part B, 80 mg, N = 10) | SOC General Disorders and Administration Site Conditions (Part B, 80 mg, N = 10) | SOC Musculoskeletal and Connective Tissue Disorders (Part B, 80 mg, N = 10) | SOC Psychiatric Disorders (Part B, 80 mg, N = 10) | SOC Vascular Disorders (Part B, 80 mg, N = 10) | PT Cognitive disorder (Part B, 100 mg, N = 9) | PT Dizziness (Part B, 100 mg, N = 9) | PT Fatigue (Part B, 100 mg, N = 9) | PT Insomnia (Part B, 100 mg, N = 9) | SOC General Disorders and Administration Site Conditions (Part B, 100 mg, N = 9) | SOC Musculoskeletal and Connective Tissue Disorders (Part B, 100 mg, N = 9) | SOC Nervous System Disorders (Part B, 100 mg, N = 9) | SOC Psychiatric Disorders (Part B, 100 mg, N = 9) | SOC Vascular Disorders (Part B, 100 mg, N = 9) | PT Cognitive disorder (Part B, 120 mg, N = 9) | PT Dizziness (Part B, 120 mg, N = 9) | PT Fatigue (Part B, 120 mg, N = 9) | PT Insomnia (Part B, 120 mg, N = 9) | SOC General Disorders and Administration Site Conditions (Part B, 120 mg, N = 9) | SOC Musculoskeletal and Connective Tissue Disorders (Part B, 120 mg, N = 9) | SOC Vascular Disorders (Part B, 120 mg, N = 9)
2 (33.3) n (%): Any TEAE (Part A, 40 mg, N = 6)
4 participants: Drug-related TEAE cognitive disorder [3]
1 (16.7) n (%): TEAE PT Headache (Part A, 40 mg, N = 6) | TEAE SOC Nervous System Disorders (Part A, 40 mg, N = 6) | Any TEAE [2] | TEAE Mild [2] | TEAE Moderate [2]
5 n (%): SOC General Disorders and Administration Site Conditions (Part B, Overall, N = 17)
70.6%: participants experiencing TEAEs considered related to study drug [3]
8 n (%): SOC Nervous System Disorders (Part B, 20 mg, N = 17) | Any TEAE (Part B, 40 mg, N = 15) | Any TEAE (Part B, 60 mg, N = 12) | SOC Nervous System Disorders (Part B, 60 mg, N = 12) | SOC Gastrointestinal Disorders (Part B, Overall, N = 17)
